Values joined by “and” are separate entries in the source; they are usually repeats but may differ in a detail not shown here. Equal values may be shown once.
What was measured:
Assay type in all cases: cell-based
[1] = tested on: Candida albicans (ATCC: 14053); assay: Inhibitory effect of AMP-33 on Candida albicans (viability, OD 630 nm); conditions: 8 μg/mL, 28 hours; repeated experiments
Procedure: (1) Candida albicans was inoculated into YM liquid medium and cultured overnight under aerobic conditions at 28° C. and […] on a shaker.
(2) 200 μL of YM liquid culture medium and a predetermined concentration of peptide AMP-33 were added to a 96-deep-well plate. Then, 10 μL of the Candida albicans solution was inoculated (mixed well before inoculation).
(3) After incubating at […] for 28 hours on a shaking table at 28° C., the turbidity of the bacterial solution was observed. A volume of 100 μL of the solution was taken, and the OD at 630 nm was measured using an enzyme-linked immunosorbent assay (ELISA) reader (after multiple blows and mixing).
[formula] • OD Measurement: OD value of the test peptide. • ODneg: OD value with no bacterial inoculation, containing only […] medium. • ODpos: OD value with bacterial inoculation and without inhibitors.

[2] = tested on: HaCat (human immortalized epidermal cells) cells; assay: Cytotoxic assay (CCK-8) in HaCat cells; conditions: 60 hours
Procedure: Preparation of Cell Suspension: HaCat (human immortalized epidermal cells) cells were counted and inoculated into 96-well plates. 100 μL of cell suspension was added to each well, corresponding to a density of 5×10^4 cells per well, with three replicates for each sample. The cells were cultured in a 37° C. incubator for 4 hours until they were attached to the plate. Peptides from the examples, as well as FK13 and HPA3NT3, were then added at concentrations of 80 μg/mL, 32 μg/mL, and 8 μg/mL. The cells were incubated at 37° C. for 60 hours. Afterward, 10 μL of CCK-8 solution was added, and the cells were cultured for an additional 2 hours. The absorbance of the peptides at 450 nm was measured using a dual-wavelength detector, with a detection wavelength of 450-490 nm and a reference wavelength of 600-650 nm.

Streptococcus mutans = assay: Inhibitory effect of AMP-33 on Streptococcus mutans; conditions: 5 and 10 μg/mL, 16 hours
Procedure: (1) Streptococcus mutans was cultured to the logarithmic phase, then 5 mL of the bacterial solution was centrifuged at 5,000 g for 10 minutes. The organisms were resuspended in Brain-Heart Infusion (BHI) medium, and the concentration of the bacterial solution was adjusted to approximately 2×10^5 CFU/mL using pre-configured McClure's turbidimetric tubes.
(2) Streptococcus mutans was cultured in a microtiter plate (96 wells), and 50 μL of different AMP33 peptides were added (at concentrations of 5 and 10 μg/mL). Then, 100 μL of diluted Streptococcus mutans bacterial fluid was added, followed by 50 μL of BHI medium, resulting in a final concentration of 1×10^5 CFU/mL.
(3) A blank control was provided with equal amounts of medium solution and bacterial solution as that of the experimental group, with at least 3 replicates for each treatment group.
(4) The 96-well plate was placed in a bacterial incubator at 37° C. and incubated at 150 rpm for 16 hours.

[3] = tested on: Mouse macrophage RAW264.7 cells; assay: NO concentration after treatment of LPS-stimulated RAW264.7 cells; conditions: LPS 10 ng/ml, 24 hours, replicate experiments
Procedure: (1) Mouse macrophage RAW264.7 cells were cultured in DMEM supplemented with 10% fetal bovine serum (FBS) and 1% penicillin and streptomycin (P/S) at 37° C. in a 5% CO2 incubator.
(2) 5×10^4 mouse-derived RAW264.7 macrophages were placed in 12-well cell culture plates and cultured for 24 hours. Then, 20 μL of PBS (negative control), Dexamethasone (positive control), and the test peptide were added to the wells for incubation for 2 hours. Afterward, 10 ng/ml of lipopolysaccharide (LPS) was mixed with RAW264.7 cells and incubated for 24 hours.
(3) The supernatant was collected, and NO and IL-6/IL-1ß expression levels were measured using a commercial kit.

Helicobacter pylori = assay: Inhibitory effect of AMP-33 on Helicobacter pylori; conditions: 5 and 10 μg/mL, 48 hours
Procedure: (1) Helicobacter pylori was cultured to the logarithmic phase. Then, 4.5 mL of the bacterial solution was centrifuged at 5,000 g for 6 minutes, and the organisms were resuspended in Wilkins-Chalgren medium. The concentration of the bacterial solution was adjusted to approximately 2× 10^5 CFU/mL using pre-configured McClure's turbidimetric tubes.
(2) Helicobacter pylori was cultured in a microtiter plate (96 wells), and 50 μL of different AMP33 peptides were added (at concentrations of 5 and 10 μg/mL). Next, 100 μL of diluted Helicobacter pylori bacterial fluid was added, followed by 50 μL of medium until the final concentration reached 1×10^5 CFU/mL.
(3) A blank control was provided with equal amounts of medium solution and bacterial solution as in the experimental group, with at least 3 replicates for each treatment group.
(4) The 96-well plate was placed in a bacterial incubator at 37° C. and incubated at 150 rpm for 48 hours.

Escherichia coli = assay: Minimum inhibitory concentration on Escherichia coli (liquid culture); conditions: 37° C., 24 to 48 hours
Procedure: (§1) Primary screening of liquid culture: the peptides in Examples 1 to 2 were dissolved in pure water to a concentration of 100 μg/mL. Using a micropipette, 10 μL of the peptides were added to a new 96-well plate in order from left to right, starting from the second compartment. Positive and negative controls were established for use. The 96-well plates were arranged vertically, and the peptide concentrations in the control groups were the same as those of the antimicrobial peptides. The control groups included: pure water and bacteria, antimicrobial peptide FK13 and bacteria, antimicrobial peptide HPA3NT3 and bacteria, and ciprofloxacin and bacteria. An aseptic medium was used.
(§2) If a 96-deep-well plate was used to culture bacteria, an additional 100 μL of sterile medium was added to all wells.
E. coli was inoculated in LB medium with normal oxygen concentration (21%) for 48 hours. E. coli clones were picked and incubated in LB medium at 37° C. with normal oxygen concentration (21%) for an additional 48 hours. The bacterial concentration was measured and diluted to 107 CFU/mL with culture medium for use.
(§3) The prepared fresh bacterial suspension was diluted to 105 CFU/mL and added to the 96-well plate with 90 μL of the bacterial suspension per well. The plate was incubated at 37° C. with a normal oxygen concentration for 24 to 48 hours (Propionibacterium acnes was cultured anaerobically at 37° C. for 24 to 48 hours in an anaerobic bag). The absorbance at 630 nm was measured using a microplate reader, and the degree of turbidity was observed by the naked eye.
(§4) (iv) Repetition of Operations: The Operations in (iii) were Repeated Twice, and the Decision to Perform a Third Repetition was Based on the Reproducibility of the Experiment.

Staphylococcus aureus = assay: Minimum inhibitory concentration on Staphylococcus aureus (liquid culture); conditions: 37° C., 24 to 48 hours
Procedure: as §1, §2
Staphylococcus aureus was inoculated in LB medium with a normal oxygen concentration (21%) for 48 hours. Staphylococcus aureus clones were picked and incubated in LB medium at 37° C. with a normal oxygen concentration (21%) for an additional 48 hours. The bacterial concentration was measured and diluted to 107 CFU/mL with culture medium for use.
as §3, §4

For “Example 2: LSKWLKKLGKLLAG (designated as AMP33)”, the “Viability of Candida albicans” value [1] was 53.84 and 70.73 and 66.17, the Maximum cytotoxicity-free concentration [2] was 80 µg/mL and the “inhibition rate of Streptococcus mutans” value (Streptococcus mutans) was “approximately 100%”. For the same substance, the NO concentration ([3]; AMP-33 2 μg/mL) was 12.70 µM and 13.54 µM and 13.37 µM, the NO concentration ([3]; AMP-33 4 μg/mL) was 12.35 µM and 12.14 µM and 11.10 µM and the NO concentration ([3]; AMP-33 8 μg/mL) was 10.26 µM and 10.75 µM and 11.10 µM. For the same substance, the NO concentration ([3]; AMP-33 25 μg/mL) was 2.82 µM and 2.89 µM and 3.83 µM, the NO concentration ([3]; AMP-33 50 μg/mL) was 1.27 µM and 1.33 µM and 1.60 µM and the NO concentration ([3]; AMP-33 100 μg/mL) was 1.60 µM and 1.13 µM and 1.54 µM. For the same substance, the “inhibitory activity against H. pylori” value (Helicobacter pylori) was “approximately 100%”, the “Minimum inhibitory concentration on Escherichia coli” value (Escherichia coli) was 50 µg/mL and the “Minimum inhibitory concentration on Staphylococcus aureus” value (Staphylococcus aureus) was 12.5 µg/mL.
